This is an account of results in patent EP1001774B1, “USE OF PHOSPHOLAMBAN INHIBITORS FOR INCREASING CORONARY FLOW” (ORION CORPORATION, priority 1997, dated 1999).

In general, EC50 refers to the concentration at which the effect is half-maximal. A lower EC50 goes with a more potent agent.

A value given as a limit tells only on which side of the number the result lay.

The test system of test [1] is SR Ca^2+-ATPase. Description: Calcium uptake assay (fluo-3) in SR vesicles from fast skeletal muscle (psoas m.), which contain no phospholamban. To be noted: vesicles from fast skeletal muscle, 0.04 µM free calcium. The test is classed as biochemical, guinea-pig. An excerpt: (§1) The direct binding of a compound to the phospholamban protein can be ascertained by the circular dichroism (CD) spectroscopy. The methods for determining whether a compound relieves the inhibitory effect of phospholamban on SR Ca^2+-ATPase by direct binding to the phospholamban protein, i.e. is a phospholamban inhibitor, are illustrated in detail in the experimental section.
(§2) The effect on phospholamban of the compounds used in the invention was verified by measuring its effects on calcium uptake into the SR vesicles prepared from cardiac tissue and into vesicles prepared from fast skeletal muscle (psoas m.). […] The methods are described below in detail.
(§3) Guinea pigs (10-12) were decapited. Their hearts or the psoas muscles were excised, washed in ice-cold 0.9 % NaCl and cut into pieces in a buffer containing 20 mM Tris-maleate, 0.3 M sucrose, pH 7.0. Thereafter tissue pieces were homogenized with Polytron and further with Potter (10 strokes). The homogenate was centrifugated at 1000 g for 15 min at 4 °C. The supernatant was collected and the pellet was resuspended into 5 ml of the buffer (20 mM Tris-maleate, 0.3 M sucrose, pH 7.0) and recentrifugated at 1000 g for 10 min at 4 °C. The obtained supernatant was combined with the earlier collected supernatant and centrifugated once again at 10 000 g for 20 min at 4 °C. The final supernatant was filtered into a bottle equipped with a magnetic stirrer. KCl was added to the filtered supernatant to achieve the final concentration of 0.6 M (at 4 °C). The obtained solution was centrifugated at 100 000 g for 60 min at 4 °C. The pellet was suspended in 5 ml of the buffer containing 20 mM Tris-maleate, 0.3 M sucrose, pH 7.0 and centrifugated at 100 000 g for 60 min at 4 °C. The obtained pellet was suspended in 5 ml of buffer containing 20 mM Tris-maleate, 0.3 M sucrose, 0.1 M KCI, pH 7.0 and stored at -80 °C until use. The protein concentration was also measured in order to standardise the separately prepared vesicle preparations.
(§4) In the calcium uptake assay, the fluorescent indicator, fluo-3 was used to detect the decrease of the extravesicular Ca^2+-concentration, when the SR Ca^2+ATPase was transferring Ca^2+ from the extravesicular space into the SR-vesicles.
(§5) The SR-vesicles obtained above (50 µg protein/ml) were preincubated with or without the test compound at 37 °C for 5 min in the assay buffer containing 40 mM imidazole, 95 mM KCI, 5 mM NaN3, 5 mM MgCl2, 0.5 mM EGTA, 5 mM potassium oxalate, 2 µM ruthenium red, 5 µM fluo-3, pH 7.0. The free calcium was adjusted to 0.1 µM or to 0.04 µM by CaCl2. The reaction was initiated by adding ATP (5 mM). The final reaction volume was 1.5 ml. The fluorescence of reaction mixture was measured for 3 min by using the excitation and emission wavelengths of 510 nm and 530 nm, respectively.

Test [2] addresses T1, phospholamban (Cavia porcellus, UniProt A0A286XLC6).
T1 construct: calcium uptake into the SR vesicles prepared from cardiac tissue; from tissue; host or cells: guinea-pig heart (ventricular myocardium), SR vesicle preparation
T1 sequence (A0A286XLC6 1-52): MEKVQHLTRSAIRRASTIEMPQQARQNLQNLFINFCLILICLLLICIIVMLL
Description: Calcium uptake assay (fluo-3) in SR vesicles from cardiac tissue. The test is classed as biochemical, guinea-pig. To be noted: vesicles from ventricular myocardium, 0.1 µM free calcium, read-out: The stimulation (%) of Ca^2+ uptake A; for activation at 100 µM: 100 µM compound; for activation at 10 µM: 10 µM compound.
Description: as §1, §2, §3, §4, §5

Test [3] concerns coronary arteries. Nature of the test: Coronary flow in isolated paced heart (Langendorff, constant pressure). To be noted: Cavia porcellus; for Emax at 3 µM / Emax at 10 µM / Emax at 30 µM: read-out: Maximum effect (% change from baseline) on the coronary flow; for EC50: isolated heart, constant pressure 50 mmHg, paced at 250 beats/min. Also noted: species or system guinea-pig. How it is done:
Guinea-pigs of either sex weighing 300-400 g were used in the study. After the guinea-pig was sacrificed by a blow on the skull and decapitated the heart was rapidly excised. The heart was then rinsed in cold oxygenated perfusion buffer. A cannula was inserted into the aorta and secured with a ligature. Retrograde perfusion began as soon as the heart was placed in a thermostatically controlled moist chamber of the Langendorff apparatus. Modified Tyrode solution (37 °C), equilibrated in a thermostatically controlled bulb oxygenator with carbogen (95 % O2 and 5% CO2) was used as a perfusion buffer. The composition of the Tyrode solution was (in mM): NaCl 135; MgCl2 x 6H2O 1; KCl 5; CaCl2 x 2H2O 2; NaHCO3 15; Na2HPO4 x 2H2O 1; glucose 10; pH 7.3-7.4. The experiments were carried out under constant pressure condition (50 mmHg). After a short prestabilization (10 min) a latex balloon (size 4) was carefully placed into the left ventricle through the left pulmonary vein and the left atrium. The latex balloon was attached to a stainless-steel cannula coupled with a pressure transducer. The latex balloon, the cannula and the chamber of the pressure transducer were filled with ethylene glycol / water (1:1) mixture avoiding any air-bubble. The isovolumetric left ventricular pressure was recorded through the pressure transducer. The maximal positive and negative derivatives of the left ventricular pressure were calculated by using the digitized pressure signals. At the beginning of the experiment, the volume of the balloon was adjusted to obtain a diastolic pressure of approximately 5 mmHg. Coronary flow (ml/min) was continuously recorded by an electromagnetic flow meter with a flow probe inserted above the aortic cannula. The heart was paced at 250 beats/min with a coaxial electrode localized on the surface of the right atrium. Before starting the experiment, the heart was allowed to stabilise further for 30 - 50 min with vehicle (0.1% DMSO) to reach a stable coronary flow.
After 15 min baseline recording various concentrations of the test compound of Example 1c were added to the perfusion buffer at 15 min intervals. The concentration range of 0.3 - 30 µM was tested. The vehicle concentration (0.1% DMSO) was kept constant throughout the experiment.

`O=c1oc2cc(OCc3nnn[nH]3)cc(OCc3nnn[nH]3)c2c2c1C(c1ccccc1)CCC2` (centres unmarked) [Example 2c, 7,8,9,10-Tetrahydro-1,3-bis[(1H -tetrazol-5-yl)methoxy]-7-phenyl-6H-dibenzo[b,d]pyran-6-one]: in test [1] (100 µM compound), the “The stimulation (%) of Ca^2+ uptake B” value is on record as -1%. The activation at 100 µM in test [2] is 26%.
As for `Cc1c(Cc2ccccc2)c(=O)oc2cc(OC(C)c3nnn[nH]3)cc(OC(C)c3nnn[nH]3)c12` (centres unmarked) [Example 11b, 3-Benzyl-5,7-bis[1-(1H-tetrazol-5-yl)ethoxy]4-methyl-2 H-1-benzopyran-2-one], the activation at 100 µM in test [2] amounted to 28%. For the same compound, in test [3], the Emax at 3 µM came to 38% and the response was half-maximal at 1 µM (EC50).
For the compound `Cc1c(Cc2ccccc2)c(=O)n(Cc2ccccc2)c2cc(OCc3nnn[nH]3)cc(OCc3nnn[nH]3)c12` [Example 8g, 5,7-Bis[(1H-tetrazol-5-yl)methoxy]-1,3-dibenzyl-4-methyl-2(1H)-quinolinone], the “The stimulation (%) of Ca^2+ uptake B” value in test [1] (10 µM compound) is 0%. In test [2], the activation at 10 µM worked out at 18%. Moreover, in test [3], the Emax at 10 µM stood at 100% and a half-maximal response (EC50) required 1 µM.
On to `Cc1c(Cc2ccccc2)c(=O)n(Cc2ccccc2)c2cc(OCC(=O)O)cc(OCC(=O)O)c12` [Example 12, 5,7-Bis(carboxymethoxy)-1,3-dibenzyl-4-methyl-2(1H)-quinolinone], for which, in test [2], the activation at 100 µM amounted to 32%. Also, in test [3], the Emax at 10 µM came out at 60% and the 50% effective concentration (EC50) amounted to 5 µM.
In the case of `Cc1c(Cc2ccccc2)c(=O)n(Cc2ccc(F)cc2)c2cc(OCc3nnn[nH]3)cc(OCc3nnn[nH]3)c12` [Example 13d], the activation at 50 µM in test [2] (50 µM compound) worked out at 23%. Further, in test [3], the Emax at 30 µM is 104% and a half-maximal response (EC50) required 6 µM.
`Cc1c(CCc2ccccc2)c(=O)oc2cc(OCc3nnn[nH]3)cc(OCc3nnn[nH]3)c12` [Example 7c, 5,7-Bis[(1H-tetrazol-5-yl)methoxy]-4-methyl-3-(2-phenylethyl)-2H-1benzopyran-2-one]: the “The stimulation (%) of Ca^2+ uptake B” value in test [1] (100 µM compound) is -17%. In test [2], the activation at 100 µM was found to be 5%.
In the case of `Cc1c(Cc2ccc(Cl)cc2)c(=O)oc2cc(OCc3nnn[nH]3)cc(OCc3nnn[nH]3)c12` [Example 14c, 5,7-Bis[(1H-tetrazol-5-yl)methoxy]-3-(4-chlorobenzyl)-4-methyl-2H-1-benzopyran-2-one], the activation at 10 µM in test [2] amounted to 18%. In test [3], the Emax at 10 µM turned out to be 112% and the 50% effective concentration (EC50) came out at 1.5 µM.
Turning to `Cc1c(Cc2ccccc2)c(=O)n(Cc2ccccc2)c2cc(OCC(=O)NO)cc(OCC(=O)NO)c12` [Example 23, 5,7-Bis(hydroxyaminocarbonylmethoxy)-1,3-dibenzyl-4-methyl-2(1H)-quinolinone], the activation at 5 µM in test [2] (5 µM compound) was 20%. In test [3], the Emax at 3 µM worked out at 55% and the concentration for a half-maximal effect (EC50) was 0.9 µM.
As for `Cc1c(Cc2ccccc2)c(=O)oc2cc(OCc3noc(=O)[nH]3)cc(OCc3noc(=O)[nH]3)c12` [Example 3c, 3-Benzyl-5,7-bis[(2,5-dihydro-5-oxo-4H-1,2,4-oxadiazol-3-yl)-methoxy]-4-methyl-2H-1-benzopyran-2-one], the “The stimulation (%) of Ca^2+ uptake B” value in test [1] (20 µM compound) was 0%. Also, the activation at 20 µM in test [2] (20 µM compound) was 51%. In test [3], the Emax at 30 µM turned out to be 174% and the EC50 is 5 µM.
`Cc1c(Cc2ccccc2)c(=O)n(Cc2ccccc2)c2cc(OCC(N)=O)cc(OCC(N)=O)c12` [Example 21, 5,7-Bis(aminocarbonylmethoxy)-1,3-dibenzyl-4-methyl-2(1H)-quinolinone]: in test [2], the activation at 100 µM came out at 11%. Besides, in test [3], the Emax at 10 µM came to 141% and the 50% effective concentration (EC50) turned out to be 2 µM.
As for `Cc1cc(=O)n(Cc2ccccc2)c2cc(OCc3nnn[nH]3)cc(OCc3nnn[nH]3)c12` [Example 18e, 1-Benzyl-5,7-bis-[(1H-tetrazol-5-yl)methoxy]-4-methyl-2(1H)-quinolinone], the activation at 100 µM in test [2] is 13%. In addition, in test [3], the Emax at 30 µM is 69% and the EC50 is 5 µM.
Consider `O=c1cc(-c2ccccc2)c2c(OCc3nnn[nH]3)cc(OCc3nnn[nH]3)cc2o1` [Example 5c, 5,7-Bis[(1H-tetrazol-5-yl)methoxy]-4-phenyl-2H-1-benzopyran-2-one], for which, in test [3], the Emax at 30 µM came to 52% and the EC50 is more than 10 µM.
